Experimental findings from patent US7244595B2, “Method of maintaining or improving a nitrile hydratase activity” (priority 2003, dated 2007) are described below.

Each structure is given as a SMILES string. Values joined by “and” are separate entries in the source; they are usually repeats but may differ in a detail not shown here. Identical values can stand only once.

Assay [1] addresses T1, nitrile hydratase (Pseudonocardia thermophila, UniProt Q7SID2+Q7SID3).
Method: (§1) In HPLC analysis of a reaction solution in the Examples, ULTRON 80HG (50×8 φmm) was used as an HPLC column, and 10 mM aqueous phosphate solution was used as a developing solution. Acrylamide and acrylonitrile were detected by absorbance at 220 nm to determine their concentrations.
(§2) The reaction was terminated by adding 80 g of 10 mM aqueous phosphoric acid, and then the concentration of acrylamide in the reaction solution was determined by HPLC analysis. Subsequently, the concentration of the microbial suspension based on the dry weight of the microorganism was determined, and then the amount of formed acrylamide per unit dry weight of the microorganism was calculated.
A wet microorganism was obtained in the same manner as in Example 3. […] The suspension was kept at 10° C. under stirring, while the air (40 N-ml/min.) was passed through the gaseous phase in the flask. 0, 1, 2, 3, 7 and 19 days after storage, a part of the microbial suspension was removed. […] The amount of formed acrylamide in each of the collected microbial suspensions per unit dry weight of the microorganism was determined in the same manner as in Example 3.
A wet microorganism was obtained in the same manner as in Example 3. […] The amount of formed acrylamide in each of the collected microbial suspensions per unit dry weight of the microorganism was determined in the same manner as in Example 3.
Assay [2] addresses T1, nitrile hydratase. The source holds these as a separate data set.
Method: as §1
MT-10822 strain (FERM BP-5785, see JP-A 11-253168) having a nitrile hydratase gene introduced into Escherichia coli HB101, deposited by Mitsui Chemicals, Inc., was used as the nitrile hydratase-containing cell in this example.
For culture of this microbial strain, 15.0 L medium having the following composition was prepared in a 30 L culture container and sterilized with high-pressure steam at 121° C. for 20 minutes. Ampicillin was added at a final concentration of 50 μg/ml to this medium, and the microbial strain was inoculated via a platinum loop thereto and cultured at 37° C. at 700 rpm for 20 hours. […]
The reaction was terminated by adding 80 g of 10 mM aqueous phosphoric acid, and then the concentration of acrylamide in the reaction solution was determined by HPLC analysis. Subsequently, the concentration of the microbial suspension was determined on the basis of the dry weight of the microorganism, and then the amount of formed acrylamide per unit dry weight of the microorganism was calculated. […]
For assay [3], the target named is T1, nitrile hydratase. Kind of assay: Nitrile hydrating activity (acrylamide formed) of wet microorganism contacted with an oxidizing agent in deoxidized water. The class given is cell-based, Escherichia coli HB101 (MT-10822 strain). Further details: expressed in transfected cells; host or cells: Escherichia coli HB101 (transformant MT-10822, FERM BP-5785), IPTG-induced.
Method: as §1
The resulting microorganism, 0.20 g, was suspended in previously deoxidized pure water in a 100 ml sealable glass container previously sufficiently purged with nitrogen, and potassium ferricyanide was added and suspended as an oxidizing agent at a final concentration shown in Table 1 to give 20.00 g suspension. Separately, an oxidizing agent-free microbial suspension was prepared in the same manner. The microbial suspension was kept at 20° C. for 15 minutes under stirring.
as §2
The amount of acrylamide formed per unit dry weight of the microorganism was determined in the same manner as in Example 3 except that in place of potassium ferricyanide, ammonium persulfate was added and suspended as an oxidizing agent at a concentration shown in Table 1.
The microbial suspension was kept at 20° C. under stirring. 0 minute, 10 minutes, 2 hours and 24 hours after the stirring was initiated, a small amount of the microbial suspension was collected, and the amount of formed acrylamide per unit dry weight of the microorganism was determined in the same manner as in Example 3.
Separately, a microbial suspension wherein the oxidizing agent was not added and the pH value was not adjusted was also prepared in the same manner. The microbial suspension was kept at 20° C. for 15 minutes under stirring. The amount of formed acrylamide per unit dry weight of the microorganism was determined in the same manner as in Example 3.
Separately, a microbial suspension wherein the oxidizing agent was not added was also prepared in the same manner. The amount of formed acrylamide per unit dry weight of the microorganism was determined in the same manner as in Example 3.

T1 sequence (Q7SID2 whole entry): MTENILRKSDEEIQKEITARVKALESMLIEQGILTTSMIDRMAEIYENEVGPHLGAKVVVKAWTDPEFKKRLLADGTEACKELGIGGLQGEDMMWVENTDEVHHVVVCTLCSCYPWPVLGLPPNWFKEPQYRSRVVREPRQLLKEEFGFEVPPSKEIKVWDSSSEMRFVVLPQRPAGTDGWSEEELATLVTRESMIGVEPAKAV
T1 sequence (Q7SID3 whole entry): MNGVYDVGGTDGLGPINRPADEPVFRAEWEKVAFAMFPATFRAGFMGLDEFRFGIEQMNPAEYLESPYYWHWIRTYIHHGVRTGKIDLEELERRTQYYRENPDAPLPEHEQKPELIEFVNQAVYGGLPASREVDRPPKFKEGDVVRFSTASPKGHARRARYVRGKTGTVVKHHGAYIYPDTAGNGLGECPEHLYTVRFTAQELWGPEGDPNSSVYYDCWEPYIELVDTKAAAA

Turning to `O=O` [oxygen], the “nitrile hydrating activity of the nitrile hydratase on contact with oxygen, depending on the contact time (in words)” value in assay [1] is “improved depending on the contact time”. Moreover, in assay [2], the “amount of formed acrylamide per unit dry weight of the microorganism (0 hour of storage = 1)” value was 1.1 and 1.0.
Take `OO` [HYDROGEN PEROXIDE, hydrogen peroxide]: in assay [3], the “AMOUNT OF […] (RELATIVE VALUE)” value was 2.4 relative value and the “nitrile hydrating activity of the nitrile hydratase on contact of the microorganism with the oxidizing agent (in words)” value was “improved”.
Take `N.N.O=S(=O)(O)OOS(=O)(=O)O` [AMMONIUM PERSULFATE, ammonium persulfate]: in assay [3], the “AMOUNT OF […] (RELATIVE VALUE)” value is recorded as 1.6 relative value and the “nitrile hydrating activity of the nitrile hydratase on contact of the microorganism with the oxidizing agent (in words)” value is given as “improved”.
